From US20230346831A1, “METHODS FOR TREATING […] USING LOW DOSE CARBON MONOXIDE” (priority 2020, published 2023)
“And” between values parts separate entries of the source, which are not always exact repeats. Equal values may be shown once.

System: MCF7/TGL cells
Assay: metabolomic assay (polar metabolite profiling, mass spectrometry)
Format: cell-based, human
Settings: MCF7/TGL cells treated with CO, replicates CO 1-3
Experimental: Extraction and analysis were performed with the same parameters as the method disclosed in FIG. 7.
7 × 10^6 cells were seeded in 10-cm cell culture plates with DMEM containing 10% FBS, 0.2 mM L-glutamine and 1% penicillin/streptomycin. Additionally, MCF7/TGL/pQ was cultured in media containing 0.5 µgml^-1 puromycin and 25 mM HEPES. After 16 hours of incubation, metabolites were extracted from the cells using 80% methanol. The remaining steps were carried out by Weill Cornell Medicine Proteomics and Metabolomics Core Facility according to M. D. Goncalves et al., Proc Natl Acad Sci USA 115, E743-E752 (2018). All data analyses were done using MetaboAnalyst 4.0 (www.metaboanalyst.ca/).
To investigate whether 250 ppm CO mimics hypoxia, the HiF1α protein levels were examined in CO treated MCF7/TGL and MDA-MB-231/TGL cells. […] To determine whether 250 ppm CO affects metabolism, polar metabolites were profiled using two breast cancer cell lines, MCF7/TGL and MDA-MB-231/TGL (FIGS. 7-9).

[C-]#[O+] [CO, Carbon monoxide]
Peak Height 2-Ketobutyric acid (HMDB00005): 4,031,318 and 4,391,029 and 5,247,754 | Peak Height Deoxyuridine (HMDB00012): 4,052 and 3,614 and 4,205 | Peak Height Carnosine (HMDB00033): 2,611,797 and 2,457,728 and 2,635,558 | Peak Height Adenine (HMDB00034): 319,396 and 405,129 and 608,706 | Peak Height Dihydrobiopterin (HMDB00038): 37,904,750 and 45,778,470 and 54,551,140 | Peak Height Betaine (HMDB00043): 211,641,600 and 205,281,000 and 256,902,700 | Peak Height Ascorbic acid (HMDB00044): 1,179,857 and 2,029,092 and 5,154,497 | Peak Height Adenosine monophosphate (HMDB00045): 595,508 and 473,948 and 497,428 | Peak Height Adenosine (HMDB00050): 14,622 and 14,037 and 23,296 | Peak Height Argininosuccinic acid (HMDB00052): 180,070 and 286,271 and 472,100 | Peak Height L-Carnitine (HMDB00062): 275,929,100 and 289,061,800 and 291,180,600 | Peak Height Creatine (HMDB00064): 394,311,900 and 394,104,400 and 478,205,800 | Peak Height cis-Aconitic acid (HMDB00072): 11,654,680 and 13,826,410 and 17,813,720 | Peak Height Cytidine triphosphate (HMDB00082): 248,084 and 155,802 and 221,285 | Peak Height Glycerophosphocholine (HMDB00086): 299,915,900 and 348,438,900 and 459,259,100 | Peak Height Cytidine (HMDB00089): 104,165 and 69,105 and 173,745 | Peak Height Dimethylglycine (HMDB00092): 6,279,555 and 7,567,884 and 7,137,536 | Peak Height Citric acid (HMDB00094): 83,266,830 and 83,863,100 and 100,258,700 | Peak Height Cytidine monophosphate (HMDB00095): 93,671 and 115,860 and 141,423 | Peak Height Choline (HMDB00097): 183,705,300 and 191,547,400 and 211,305,800 | Peak Height L-Cystathionine (HMDB00099): 13,082,840 and 16,491,010 and 22,978,520 | Peak Height D-Glucose (HMDB00122): 24,253,400 and 27,009,740 and 49,287,950 | Peak Height Glycine (HMDB00123): 97,069,490 and 60,912,580 and 81,769,040 | Peak Height Fructose 6-phosphate (HMDB00124): 689,466 and 869,013 and 1,084,547 | Peak Height Glutathione (HMDB00125): 166,253,500 and 185,818,800 and 224,175,500 | Peak Height Glycerol3-phosphate (HMDB00126): 242,288 and 358,077 and 520,107 | Peak Height D-Glucuronic acid (HMDB00127): 193,639 and 229,627 and 245,391 | Peak Height Fumaric acid (HMDB00134): 5,149,166 and 6,086,688 and 8,204,115 | Peak Height L-Glutamic acid (HMDB00148): 344,240,500 and 392,276,300 and 563,702,200 | Peak Height Hypoxanthine (HMDB00157): 207,108 and 78,064 and 86,812 | Peak Height L-Tyrosine (HMDB00158): 58,933,980 and 62,662,290 and 101,701,400 | Peak Height L-Phenylalanine (HMDB00159): 287,943,500 and 304,931,600 and 425,257,300 | Peak Height L-Alanine (HMDB00161): 24,164,680 and 26,271,210 and 37,606,940 | Peak Height L-Proline (HMDB00162): 456,504,200 and 470,321,900 and 561,265,500 | Peak Height L-Threonine (HMDB00167): 103,403,600 and 114,367,100 and 144,573,600 | Peak Height L-Asparagine (HMDB00168): 42,196,450 and 47,225,620 and 55,751,170 | Peak Height L-Isoleucine (HMDB00172): 339,480,000 and 333,493,200 and 481,854,600 | Peak Height Inosinic acid (HMDB00175): 22,764 and 28,902 and 46,283 | Peak Height L-Histidine (HMDB00177): 295,632,700 and 322,360,800 and 456,145,200 | Peak Height L-Lysine (HMDB00182): 41,138,540 and 40,717,620 and 74,426,720 | Peak Height Alpha-Lactose (HMDB00186): 261,525 and 290,474 and 303,327 | Peak Height L-Serine (HMDB00187): 22,682,210 and 24,881,370 and 27,375,240 | Peak Height L-Lactic acid (HMDB00190): 135,248,600 and 168,348,200 and 288,458,500 | Peak Height L-Aspartic acid (HMDB00191): 12,945,220 and 18,829,880 and 30,552,150 | Peak Height L-Acetylcarnitine (HMDB00201): 191,662,400 and 208,376,400 and 217,883,700 | Peak Height N6-Acetyl-L-lysine (HMDB00206): 126,221 and 143,548 and 210,190 | Peak Height Oxoglutaric acid (HMDB00208): 24,674,800 and 27,743,170 and 32,411,680 | Peak Height Pantothenic acid (HMDB00210): 49,604,040 and 57,015,540 and 93,443,310 | Peak Height Myoinositol (HMDB00211): 1,493,285 and 1,572,114 and 2,893,583 | Peak Height Ornithine (HMDB00214): 3,323,027 and 3,678,113 and 4,669,739 | Peak Height NADP (HMDB00217): 35,994 and 44,669 and 56,121 | Peak Height Orotic acid (HMDB00226): 107,743 and 166,715 | Peak Height Thiamine (HMDB00235): 13,320,550 and 15,145,370 and 21,979,980 | Peak Height Pyruvic acid (HMDB00243): 6,830,386 and 7,616,124 and 9,628,515 | Peak Height Riboflavin (HMDB00244): 8,515 and 36,944 | Peak Height Taurine (HMDB00251): 213,761,300 and 213,696,600 and 188,154,600 | Peak Height Succinic acid (HMDB00254): 3,099,054 and 3,989,967 and 6,160,312 | Peak Height Thymine (HMDB00262): 7,867,191 and 9,149,847 and 12,133,270 | Peak Height Phosphoenolpyruvic acid (HMDB00263): 3,181,575 and 5,081,852 and 6,959,276 | Peak Height Pyroglutamic acid (HMDB00267): 70,921,790 and 82,143,660 and 125,886,000 | Peak Height Thymidine (HMDB00273): 18,849 and 10,836 and 11,271 | Peak Height Uridine triphosphate (HMDB00285): 972,321 and 740,370 and 1,159,635 | Peak Height Uridine diphosphate glucose (HMDB00286): 3,510,195 and 3,063,631 and 4,862,560 | Peak Height Uridine 5′-monophosphate (HMDB00288): 35,559 and 34,351 and 45,597 | Peak Height Uric acid (HMDB00289): 2,364,329 and 2,512,157 and 4,422,182 | Peak Height Uridine diphosphate-N-acetylglucosamine (HMDB00290): 38,715,250 and 42,157,110 and 45,820,290 | Peak Height Xanthine (HMDB00292): 3,106,304 and 2,715,740 and 5,495,149 | Peak Height Uridine 5′-diphosphate (HMDB00295): 297,075 and 234,752 and 314,015 | Peak Height Uridine (HMDB00296): 51,402 and 29,724 and 61,581 | Peak Height Uracil (HMDB00300): 621,176 and 684,209 and 956,261 | Peak Height Urocanicacid (HMDB00301): 330,874 and 577,556 and 198,149 | Peak Height 3-Hydroxymethylglutaric acid (HMDB00355): 5,766,106 and 4,010,368 and 3,996,699 | Peak Height Allantoin (HMDB00462): 1,483,552 and 1,936,773 and 3,316,178 | Peak Height Caprylic acid (HMDB00482): 3,978,947 and 2,718,335 and 2,586,172 | Peak Height Aminoadipic acid (HMDB00510): 5,713,433 and 5,346,300 and 7,560,774 | Peak Height L-Arginine (HMDB00517): 64,328,130 and 65,745,300 and 95,595,630 | Peak Height Adenosine triphosphate (HMDB00538): 1,853,382 and 1,283,500 and 2,002,755 | Peak Height Creatinine (HMDB00562): 20,992,210 and 21,746,470 and 37,545,350 | Peak Height Galactonic acid (HMDB00565): 8,090,935 and 11,406,370 and 14,258,950 | Peak Height D-Arabitol (HMDB00568): 250,315 and 263,626 and 418,856 | Peak Height D-2-Hydroxyglutaric acid (HMDB00606): 460,608 and 570,887 and 905,587 | Peak Height Gluconic acid (HMDB00625): 6,277,480 and 8,930,573 and 14,396,540
